Test results published in PubChem BioAssay (NCI).
Values joined by “and” are separate entries in the source; they are usually repeats but may differ in a detail not shown here. Identical values can stand only once.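 Exposure lasted 48 hours, with cells grown in 96-well plates and compounds tested at five concentrations. GI50 marks 50% less growth. TGI: total growth inhibition.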

What was measured:
Test in all cases: growth of human tumour cells (NCI), 48 h
786-0 renal = system: 786-0 renal
HCT-116 colon = system: HCT-116 colon
MDA-N = system: MDA-N
NCI-H226 lung = system: NCI-H226 lung
OVCAR-8 ovarian = system: OVCAR-8 ovarian
RPMI-8226 leukemia = system: RPMI-8226 leukemia
SF-268 CNS = system: SF-268 CNS
SK-MEL-28 melanoma = system: SK-MEL-28 melanoma
SK-MEL-5 melanoma = system: SK-MEL-5 melanoma
SNB-75 CNS = system: SNB-75 CNS
SW-620 colon = system: SW-620 colon
TK-10 renal = system: TK-10 renal
UACC-62 melanoma = system: UACC-62 melanoma
SR leukemia = system: SR leukemia

CS(=O)(=O)c1nc(-c2cc3c(c(S(C)(=O)=O)n2)CCCC3)cc2c1CCCCC2
TGI (786-0 renal): > 100 µM
TGI (HCT-116 colon): > 100 µM
TGI (MDA-N): > 100 µM
TGI (NCI-H226 lung): > 100 µM
TGI (OVCAR-8 ovarian): > 100 µM
TGI (RPMI-8226 leukemia): > 100 µM
TGI (SF-268 CNS): 85.1 µM
TGI (SK-MEL-28 melanoma): > 100 µM
TGI (SK-MEL-5 melanoma): > 100 µM
TGI (SNB-75 CNS): > 100 µM
TGI (SW-620 colon): > 100 µM
TGI (TK-10 renal): > 100 µM
TGI (UACC-62 melanoma): > 100 µM

CC(C)CCC[C@@H](C)[C@H]1CC[C@H]2[C@@H]3CC[C@H]4C[C@@H](CCC=C(c5cc(Cl)c(O)c(C(=O)O)c5)c5cc(Cl)c(O)c(C(=O)O)c5)CC[C@]4(C)[C@H]3CC[C@]12C
TGI (786-0 renal): > 100 µM
TGI (HCT-116 colon): > 100 µM
TGI (NCI-H226 lung): > 100 µM
TGI (OVCAR-8 ovarian): > 100 µM
TGI (RPMI-8226 leukemia): > 100 µM
TGI (SF-268 CNS): > 100 µM
TGI (SK-MEL-28 melanoma): > 100 µM
TGI (SK-MEL-5 melanoma): > 100 µM
TGI (SNB-75 CNS): > 100 µM
TGI (SR leukemia): > 100 µM
TGI (SW-620 colon): > 100 µM
TGI (TK-10 renal): > 100 µM
TGI (UACC-62 melanoma): > 100 µM

COc1ccc(N=NC(C(=O)c2ccccc2)C(=O)c2ccccc2)cc1
TGI (786-0 renal): 61 µM
TGI (HCT-116 colon): 38.8 µM
TGI (NCI-H226 lung): 29.9 µM
TGI (OVCAR-8 ovarian): > 100 µM
TGI (RPMI-8226 leukemia): 53.7 µM
TGI (SF-268 CNS): > 100 µM
TGI (SK-MEL-28 melanoma): > 100 µM
TGI (SK-MEL-5 melanoma): 34 µM
TGI (SNB-75 CNS): 74.8 µM
TGI (SW-620 colon): > 100 µM
TGI (TK-10 renal): > 100 µM
TGI (UACC-62 melanoma): 56.1 µM

CN(C(=O)C12C3C4C5C3C1(C(=O)C13C6C7C8C6C1C8C73)C5C42)C(C)(C)C (stereo not drawn)
TGI (786-0 renal): > 50 µM
TGI (HCT-116 colon): 18.5 µM
TGI (NCI-H226 lung): > 50 µM
TGI (OVCAR-8 ovarian): > 50 µM
TGI (RPMI-8226 leukemia): > 42.9 µM
TGI (SF-268 CNS): > 50 µM
TGI (SK-MEL-28 melanoma): > 50 µM
TGI (SK-MEL-5 melanoma): > 50 µM
TGI (SNB-75 CNS): > 50 µM
TGI (SR leukemia): > 50 µM
TGI (SW-620 colon): > 34 µM
TGI (TK-10 renal): > 50 µM
TGI (UACC-62 melanoma): > 50 µM

CN(C)c1ccc(C=NCC2CCCN3CCCCC23)cc1 (stereo not drawn)
TGI (786-0 renal): > 100 µM
TGI (HCT-116 colon): > 100 µM
TGI (MDA-N): > 100 µM
TGI (NCI-H226 lung): > 100 µM
TGI (OVCAR-8 ovarian): > 100 µM
TGI (SF-268 CNS): > 100 µM
TGI (SK-MEL-5 melanoma): > 100 µM
TGI (SNB-75 CNS): > 100 µM
TGI (TK-10 renal): > 100 µM
TGI (UACC-62 melanoma): > 100 µM

C/C=C(/I)CBr
TGI (786-0 renal): 30.8 µM
TGI (HCT-116 colon): 27.9 µM
TGI (NCI-H226 lung): 38.5 µM
TGI (OVCAR-8 ovarian): 45.4 µM
TGI (RPMI-8226 leukemia): 39.2 µM
TGI (SF-268 CNS): 74.5 µM
TGI (SK-MEL-28 melanoma): 52.6 µM
TGI (SK-MEL-5 melanoma): 29.4 µM
TGI (SW-620 colon): 36.6 µM
TGI (UACC-62 melanoma): 29.5 µM

Cn1c2ccccc2c2c3c(c4c5ccccc5n(C)c4c21)C(=O)NC3=O
TGI (786-0 renal): 27.5 µM
TGI (HCT-116 colon): > 100 µM
TGI (NCI-H226 lung): > 100 µM
TGI (OVCAR-8 ovarian): > 100 µM
TGI (RPMI-8226 leukemia): > 100 µM
TGI (SF-268 CNS): > 100 µM
TGI (SK-MEL-28 melanoma): > 100 µM
TGI (SK-MEL-5 melanoma): > 100 µM
TGI (SNB-75 CNS): > 95.7 µM
TGI (SR leukemia): > 100 µM
TGI (SW-620 colon): > 100 µM
TGI (TK-10 renal): > 100 µM
TGI (UACC-62 melanoma): > 89.6 µM

CC(C)(C)OC(=O)N(CCCCNC(=O)OCc1ccccc1)CCCNC(=O)OCc1ccccc1
TGI (786-0 renal): > 100 µM
TGI (HCT-116 colon): > 100 µM
TGI (NCI-H226 lung): > 100 µM
TGI (OVCAR-8 ovarian): > 100 µM
TGI (RPMI-8226 leukemia): > 100 µM
TGI (SF-268 CNS): > 100 µM
TGI (SK-MEL-28 melanoma): > 100 µM
TGI (SK-MEL-5 melanoma): 22.5 µM
TGI (SNB-75 CNS): > 100 µM
TGI (SR leukemia): > 100 µM
TGI (SW-620 colon): > 100 µM
TGI (TK-10 renal): > 100 µM
TGI (UACC-62 melanoma): > 100 µM

COc1c(/C=C/C(C)(C)O)cc(C2CC(=O)c3c(O)cc(O)cc3O2)cc1CC=C(C)C (stereo not drawn)
TGI (786-0 renal): 18.1 µM
TGI (HCT-116 colon): 18.4 µM
TGI (MDA-N): 20.5 µM
TGI (NCI-H226 lung): 17.8 µM
TGI (OVCAR-8 ovarian): 23.1 µM
TGI (RPMI-8226 leukemia): 28.4 µM
TGI (SF-268 CNS): 19.2 µM
TGI (SK-MEL-28 melanoma): 42.5 µM
TGI (SK-MEL-5 melanoma): 15.6 µM
TGI (SNB-75 CNS): 22.8 µM
TGI (SW-620 colon): > 50 µM
TGI (TK-10 renal): 15.8 µM
TGI (UACC-62 melanoma): 13.3 µM

N#CN/C(N)=N/C/N=C(\N)NC#N
TGI (786-0 renal): 60.8 µM
TGI (HCT-116 colon): > 100 µM
TGI (NCI-H226 lung): > 100 µM
TGI (OVCAR-8 ovarian): > 100 µM
TGI (RPMI-8226 leukemia): > 100 µM
TGI (SF-268 CNS): > 100 µM
TGI (SK-MEL-28 melanoma): > 100 µM
TGI (SK-MEL-5 melanoma): > 100 µM
TGI (SNB-75 CNS): > 100 µM
TGI (SR leukemia): 93.5 µM
TGI (SW-620 colon): 36 µM
TGI (TK-10 renal): > 100 µM
TGI (UACC-62 melanoma): > 100 µM

CN(C)CCNC(=O)c1ccc(NCCCN(C)CCCNc2ccc(C(=O)NCCN(C)C)c3[nH]c4ccccc4c(=O)c23)c2c(=O)c3ccccc3[nH]c12
TGI (786-0 renal): 0.312 µM
TGI (HCT-116 colon): 0.205 µM
TGI (NCI-H226 lung): 0.609 µM
TGI (OVCAR-8 ovarian): 1.14 µM
TGI (RPMI-8226 leukemia): 0.419 µM
TGI (SF-268 CNS): 0.271 µM
TGI (SK-MEL-28 melanoma): 1.23 µM
TGI (SK-MEL-5 melanoma): 1.5 µM
TGI (SNB-75 CNS): 0.0844 µM
TGI (SR leukemia): 0.532 µM
TGI (TK-10 renal): 1.98 µM
TGI (UACC-62 melanoma): 0.353 µM

CCOC(=O)c1nnsc1N/N=C\c1ccc([N+](=O)[O-])cc1
TGI (786-0 renal): > 100 µM
TGI (HCT-116 colon): > 100 µM
TGI (MDA-N): > 100 µM
TGI (NCI-H226 lung): > 100 µM
TGI (OVCAR-8 ovarian): > 100 µM
TGI (RPMI-8226 leukemia): > 100 µM
TGI (SF-268 CNS): > 100 µM
TGI (SK-MEL-28 melanoma): > 100 µM
TGI (SK-MEL-5 melanoma): > 100 µM
TGI (SNB-75 CNS): > 100 µM
TGI (SW-620 colon): > 100 µM
TGI (TK-10 renal): > 100 µM
TGI (UACC-62 melanoma): > 100 µM

CCN(CC)CCCNc1ccc2nc(C)n3c4ccc(O)cc4c(=O)c1c23
TGI (786-0 renal): 16.8 µM
TGI (HCT-116 colon): 11.1 µM
TGI (MDA-N): 20.6 µM
TGI (NCI-H226 lung): 21.4 µM
TGI (OVCAR-8 ovarian): 19.6 µM
TGI (RPMI-8226 leukemia): 10.8 µM
TGI (SF-268 CNS): 17.2 µM
TGI (SK-MEL-28 melanoma): 26.6 µM
TGI (SK-MEL-5 melanoma): 24.5 µM
TGI (SNB-75 CNS): 7.69 µM
TGI (SW-620 colon): 14.9 µM
TGI (TK-10 renal): 16.4 µM
TGI (UACC-62 melanoma): 23.5 µM

CCC1(N=[N+]=[N-])C(=O)c2ccccc2N(C)C1=O (stereo not drawn)
TGI (786-0 renal): > 100 µM
TGI (HCT-116 colon): > 100 µM
TGI (OVCAR-8 ovarian): > 100 µM
TGI (SF-268 CNS): > 100 µM
TGI (SK-MEL-28 melanoma): > 100 µM
TGI (SK-MEL-5 melanoma): > 100 µM
TGI (SNB-75 CNS): > 100 µM
TGI (SR leukemia): > 100 µM
TGI (SW-620 colon): > 100 µM
TGI (TK-10 renal): > 100 µM
TGI (UACC-62 melanoma): > 100 µM

O=S(=O)(O)c1cc(N=Nc2c(O)ccc3ccccc23)ccc1/C=C/c1ccc(N=Nc2c(O)ccc3ccccc23)cc1S(=O)(=O)O
TGI (786-0 renal): > 100 µM
TGI (HCT-116 colon): > 100 µM
TGI (MDA-N): > 100 µM
TGI (NCI-H226 lung): > 100 µM
TGI (OVCAR-8 ovarian): > 100 µM
TGI (RPMI-8226 leukemia): > 100 µM
TGI (SF-268 CNS): > 100 µM
TGI (SK-MEL-28 melanoma): > 100 µM
TGI (SK-MEL-5 melanoma): > 100 µM
TGI (SNB-75 CNS): > 100 µM
TGI (SW-620 colon): > 100 µM
TGI (TK-10 renal): > 100 µM
TGI (UACC-62 melanoma): > 100 µM

O=c1cc(CO)oc2c3c(cc(O)c12)OCC(COC1OC(CO)C(O)C(O)C1O)=CC3 (stereo not drawn)
TGI (786-0 renal): > 100 µM
TGI (HCT-116 colon): > 100 µM
TGI (NCI-H226 lung): > 100 µM
TGI (OVCAR-8 ovarian): > 100 µM
TGI (RPMI-8226 leukemia): > 100 µM
TGI (SF-268 CNS): > 100 µM
TGI (SK-MEL-28 melanoma): > 100 µM
TGI (SK-MEL-5 melanoma): > 100 µM
TGI (SNB-75 CNS): > 100 µM
TGI (SR leukemia): > 100 µM
TGI (SW-620 colon): > 100 µM
TGI (TK-10 renal): > 100 µM
TGI (UACC-62 melanoma): > 100 µM

CN(Cc1cnc2nc(N)nc(N)c2n1)c1ccc(C(=O)N[C@@H](CCC(=O)O)C(=O)O)cc1
TGI (786-0 renal): > 250 µM
GI50 (MDA-N): 0.0289 µM and 0.0122 µM
TGI (MDA-N): > 250 µM
TGI (NCI-H226 lung): 242 µM and > 250 µM
GI50 (OVCAR-8 ovarian): 0.0703 µM and 0.488 µM
TGI (OVCAR-8 ovarian): > 250 µM
TGI (RPMI-8226 leukemia): > 250 µM
TGI (SF-268 CNS): 206 µM and > 250 µM
GI50 (SK-MEL-28 melanoma): 3.27 µM
TGI (SK-MEL-28 melanoma): > 250 µM
TGI (SK-MEL-5 melanoma): 179 µM and > 250 µM
TGI (SR leukemia): 194 µM
TGI (SW-620 colon): 221 µM and > 250 µM
TGI (TK-10 renal): 230 µM and > 250 µM
TGI (UACC-62 melanoma): 41.4 µM and > 250 µM
